Each structure is given as a SMILES string.

This assay has as its target T1, human LTA4 hydrolase (Homo sapiens, UniProt P09960).
T1 sequence (P09960 1-611): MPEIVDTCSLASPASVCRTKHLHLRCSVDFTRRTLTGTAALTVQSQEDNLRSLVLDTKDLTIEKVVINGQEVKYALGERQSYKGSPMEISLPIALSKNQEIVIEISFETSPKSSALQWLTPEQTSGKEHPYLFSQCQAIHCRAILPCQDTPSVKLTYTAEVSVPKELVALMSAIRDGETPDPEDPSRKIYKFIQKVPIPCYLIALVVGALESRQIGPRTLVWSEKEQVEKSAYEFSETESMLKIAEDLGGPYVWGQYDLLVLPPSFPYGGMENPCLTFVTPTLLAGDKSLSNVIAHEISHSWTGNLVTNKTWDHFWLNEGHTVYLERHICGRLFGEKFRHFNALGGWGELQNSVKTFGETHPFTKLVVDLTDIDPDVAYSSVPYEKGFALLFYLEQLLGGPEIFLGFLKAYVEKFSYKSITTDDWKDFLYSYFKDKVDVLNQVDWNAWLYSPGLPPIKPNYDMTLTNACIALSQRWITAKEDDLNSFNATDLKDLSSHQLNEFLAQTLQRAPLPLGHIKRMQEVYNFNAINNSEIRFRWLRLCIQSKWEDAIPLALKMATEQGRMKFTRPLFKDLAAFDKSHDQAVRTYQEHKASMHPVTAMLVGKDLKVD
As to the kind of experiment: LTA4H Enzyme assay (cleavage of Arg-AMC, fluorescence). Format: biochemical. The following applies: LTA4H Enzyme 1 nM, Arg-AMC substrate 50 μM, room temperature 1 h, fluorescence; read-out: IC50 values of LTA4H Enzyme assay. Summed up: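 Aminomethylcoumarin release measured fluorimetrically (380/460 nm) after 1 h at room temperature. Reaction: 1 nM final enzyme, 50 μM final Arg-AMC and compound in Tris-HCl pH 7.5 with 100 mM KCl and 0.5% BSA.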
On to `Oc1ccc(CNCc2ccc([C@H]3COc4ccccc4O3)cc2)cc1` [Example 111, 4-[({4-[(2S)-2,3-dihydro-1,4-benzodioxin-2-yl]benzyl}amino)methyl]phenol], for which the IC50 was determined as 2.25 nM.

As to `Oc1ccc2c(c1)CCN(Cc1ccc([C@H]3COc4ccccc4O3)cc1)C2` [Example 112, 2-{4-[(2S)-2,3-dihydro-1,4-benzodioxin-2-yl]benzyl}-1,2,3,4-tetrahydroisoquinolin-6-ol], the IC50 came to 1.07 nM.

Take `O=C1CCC2(CCN(Cc3ccc([C@H]4COc5ccccc5O4)cc3)C2)N1` (stereo partly drawn) [Example 117, 7-{4-[(2S)-2,3-dihydro-1,4-benzodioxin-2-yl]benzyl}-1,7-diazaspiro[4.4]nonan-2-one]: the IC50 is 0.23 nM.

Consider `NC(=O)N1CCCC12CCN(Cc1ccc([C@H]3COc4ccccc4O3)cc1)C2` (stereo partly drawn) [Example 119, 7-{4-[(2S)-2,3-dihydro-1,4-benzodioxin-2-yl]benzyl}-1,7-diazaspiro[4.4]nonane-1-carboxamide], for which the IC50 stood at 0.1 nM.

As to `CN1CCCC2(CCN(Cc3ccc([C@H]4COc5ccccc5O4)cc3)CC2)C1=O` [Example 120, 9-{4-[(2S)-2,3-dihydro-1,4-benzodioxin-2-yl]benzyl}-2-methyl-2,9-diazaspiro[5.5]undecan-1-one], the IC50 is 0.51 nM.

For `CS(=O)(=O)N1CCCC12CCN(Cc1ccc([C@H]3COc4ccccc4O3)cc1)C2` (stereo partly drawn) [Example 122, 7-{4-[(2S)-2,3-dihydro-1,4-benzodioxin-2-yl]benzyl}-1-(methylsulfonyl)-1,7-diazaspiro[4.4]nonane], the IC50 came to 0.91 nM.

As for `N#CCN1CCCC12CCN(Cc1ccc([C@H]3COc4ccccc4O3)cc1)C2` (stereo partly drawn) [Example 124, (7-{4-[(2S)-2,3-dihydro-1,4-benzodioxin-2-yl]benzyl}-1,7-diazaspiro[4.4]non-1-yl)acetonitrile], the IC50 worked out at 2.45 nM.

In the case of `O=C1CCC2(CCN(Cc3ccc([C@H]4COc5cccnc5O4)cc3)C2)N1` (stereo partly drawn) [Example 127, 7-{4-[(3S)-2,3-dihydro[1,4]dioxino[2,3-b]pyridin-3-yl]benzyl}-1,7-diazaspiro[4.4]nonan-2-one], the IC50 came to 0.12 nM.

As to `COCC(=O)N1CCCC12CCN(Cc1ccc([C@H]3COc4ccccc4O3)cc1)C2` (stereo partly drawn) [Example 128, 1-(7-{4-[(2S)-2,3-dihydro-1,4-benzodioxin-2-yl]benzyl}-1,7-diazaspiro[4.4]non-1-yl)-2-methoxyethanone], the IC50 was 0.65 nM.

As for `CN1CCC2(CCN(Cc3ccc([C@H]4COc5cccnc5O4)cc3)CC2)C1=O` [Example 129, 8-{4-[(3S)-2,3-dihydro[1,4]dioxino[2,3-b]pyridin-3-yl]benzyl}-2-methyl-2,8-diazaspiro[4.5]decan-1-one], the IC50 came out at 0.23 nM.

With `CN1CCCC2(CCN(Cc3ccc([C@H]4COc5ccccc5O4)cc3)CC2)C1=O` [Example 130, 9-[(S)-4-(2,3-Dihydro-benzo[1,4]dioxin-2-yl)-benzyl]-2-methyl-2,9-diaza-spiro[5.5]undecan-1-one], the IC50 was 0.51 nM.

In the case of `O=C1CCN(Cc2ccc([C@H]3COc4ccccc4O3)cc2)CCN1` [Example 131, 1-{4-[(2S)-2,3-dihydro-1,4-benzodioxin-2-yl]benzyl}-1,4-diazepan-5-one], the IC50 was 1.73 nM.

For `O=C1CCN(Cc2ccc([C@H]3COc4cccnc4O3)cc2)CCN1` [Example 132, 1-{4-[(3S)-2,3-dihydro[1,4]dioxino[2,3-b]pyridin-3-yl]benzyl}-1,4-diazepan-5-one], the IC50 is 0.91 nM.

As for `c1cnc2c(c1)OC[C@H](c1ccc(CNC3CCCC3)cc1)O2` [Example 135, N-{4-[(3S)-2,3-dihydro[1,4]dioxino[2,3-b]pyridin-3-yl]benzyl}cyclopentanamine], the IC50 is 0.47 nM.

Regarding `NC(=O)C1CCCN(Cc2ccc([C@H]3COc4cccnc4O3)cc2)C1` (stereo partly drawn) [Example 136, 1-{4-[(3S)-2,3-dihydro[1,4]dioxin[2,3-b]pyridin-3-yl]benzyl}piperidine-3-carboxamide], the IC50 worked out at 0.19 nM.

Turning to `CN1CCCN(Cc2ccc([C@H]3COc4cccnc4O3)cc2)CC1` [Example 143, (3S)-3-{4-[(4-methyl-1,4-diazepan-1-yl)methyl]phenyl}-2,3-dihydro[1,4]dioxino[2,3-b]pyridine], the IC50 stood at 0.3 nM.

`O[C@@H]1CCN(Cc2ccc([C@H]3COc4cccnc4O3)cc2)C1` [Example 144, (3R)-1-{4-[(3S)-2,3-dihydro[1,4]dioxino[2,3-b]pyridin-3-yl]benzyl}pyrrolidin-3-ol]: the IC50 was 0.14 nM.

For the molecule `OCC1CCN(Cc2ccc([C@H]3COc4cccnc4O3)cc2)CC1` [Example 146, (1-{4-[(3S)-2,3-dihydro[1,4]dioxino[2,3-b]pyridin-3-yl]benzyl}piperidin-4-yl)methanol], the IC50 turned out to be 0.29 nM.

`O[C@H]1CCN(Cc2ccc([C@H]3COc4cccnc4O3)cc2)C1` [Example 147, (3S)-1-{4-[(3S)-2,3-dihydro[1,4]dioxino[2,3-b]pyridin-3-yl]benzyl}pyrrolidin-3-ol]: the IC50 was determined as 0.35 nM.

For the molecule `CC(=O)N1CCCN(Cc2ccc([C@H]3COc4cccnc4O3)cc2)CC1` [Example 148, 1-(4-{4-[(3S)-2,3-dihydro[1,4]dihydro[2,3-b]pyridin-3-yl]benzyl}-1,4-diazepan-1-yl)ethanone], the IC50 came out at 0.28 nM.

`OCCCC1CCN(Cc2ccc([C@H]3COc4cccnc4O3)cc2)CC1` [Example 149, 3-(1-{4-[(3S)-2,3-dihydro[1,4]dioxino[2,3-b]pyridin-3-yl]benzyl}piperidin-4-yl)propan-1-ol]: the IC50 came out at 0.24 nM.

With `c1cnc2c(c1)OC[C@H](c1ccc(CN3CCCOCC3)cc1)O2` [Example 150, (3S)-3-[4-(1,4-oxazepan-4-ylmethyl)phenyl]-2,3-dihydro[1,4]dioxino[2,3-b]pyridine], the IC50 worked out at 0.21 nM.

For the molecule `O=C(O)CCCC1CCN(Cc2ccc([C@H]3COc4cccnc4O3)cc2)CC1` [Example 151, 4-(1-{4-[(3S)-2,3-dihydro[1,4]dioxino[2,3-b]pyridin-3-yl]benzyl}piperidin-4-yl)butanoic acid], the IC50 came out at 0.1 nM.

For `CNC(=O)C1CCN(Cc2ccc([C@H]3COc4cccnc4O3)cc2)CC1` [Example 152, 1-{4-[(3S)-2,3-dihydro[1,4]dioxino[2,3-b]pyridin-3-yl]benzyl}-N-methylpiperidine-4-carboxamide], the IC50 was determined as 0.17 nM.

Regarding `CC(=O)N1CCC(NCc2ccc([C@H]3COc4cccnc4O3)cc2)CC1` [Example 153, 1-[4-({4-[(3S)-2,3-dihydro[1,4]dioxino[2,3-b]pyridin-3-yl]benzyl}amino)piperidin-1-yl]ethanone], the IC50 amounted to 0.82 nM.

On to `O=C(NCCO)C1CCN(Cc2ccc([C@H]3COc4cccnc4O3)cc2)CC1` [Example 154, 1-{4-[(3S)-2,3-dihydro[1,4]dioxino[2,3-b]pyridin-3-yl]benzyl}-N-(2-hydroxyethyl)piperidine-4-carboxamide], for which the IC50 is 0.2 nM.

Regarding `CC(C)(CN1CCCC1)NCc1ccc([C@H]2COc3cccnc3O2)cc1` [Example 157, N-{4-[(3S)-2,3-dihydro[1,4]dioxino[2,3-b]pyridin-3-yl]benzyl}-2-methyl-1-(pyrrolidin-1-yl)propan-2-amine], the IC50 turned out to be 0.18 nM.

Regarding `N#CC1CCN(Cc2ccc([C@H]3COc4cccnc4O3)cc2)CC1` [Example 159, 1-{4-[(3S)-2,3-dihydro[1,4]dioxino[2,3-b]pyridin-3-yl]benzyl}piperidine-4-carbonitrile], the IC50 was 0.16 nM.

Take `O=S1(=O)CCN(Cc2ccc([C@H]3COc4cccnc4O3)cc2)CC1` [Example 161, (3S)-3-{4-[(1,1-dioxidothiomorpholin-4-yl)methyl]phenyl}-2,3-dihydro[1,4]dioxino[2,3-b]pyridine]: the IC50 turned out to be 0.41 nM.

On to `O=C(C1CCN(Cc2ccc([C@H]3COc4cccnc4O3)cc2)CC1)N1CCOCC1` [Example 162, (1-{4-[(3S)-2,3-dihydro[1,4]dioxino[2,3-b]pyridin-3-yl]benzyl}piperidin-4-yl)(morpholin-4-yl)methanone], for which the IC50 was 0.14 nM.

On to `O=C1CCCN1CC1CCCN(Cc2ccc([C@H]3COc4cccnc4O3)cc2)C1` (stereo partly drawn) [Example 163, 1-[(1-{4-[(3S)-2,3-dihydro[1,4]dioxino[2,3-b]pyridin-3-yl]benzyl}piperidin-3-yl)methyl]pyrrolidin-2-one], for which the IC50 was found to be 0.17 nM.

As for `O=C1NC(=O)C2(CCN(Cc3ccc([C@H]4COc5cccnc5O4)cc3)CC2)N1` [Example 165, 8-{4-[(3S)-2,3-dihydro[1,4]dioxin[2,3-b]pyridin-3-yl]benzyl}-1,3,8-triazaspiro[4.5]decane-2,4-dione], the IC50 stood at 0.13 nM.

Turning to `COC1CN(Cc2ccc([C@H]3COc4cccnc4O3)cc2)C1` [Example 166, (3S)-3-{4-[(3-methoxyazetidin-1-yl)methyl]phenyl}-2,3-dihydro[1,4]dioxino[2,3-b]pyridine], the IC50 stood at 0.68 nM.

For the molecule `CS(=O)(=O)N1CCC(NCc2ccc([C@H]3COc4cccnc4O3)cc2)CC1` [Example 167, N-{4-[(3S)-2,3-dihydro[1,4]dioxino[2,3-b]pyridin-3-yl]benzyl}-1-(methylsulfonyl)piperidin-4-amine], the IC50 came out at 0.27 nM.

The values above are taken from patent publication US8946203B2, “Benzodioxane inhibitors of leukotriene production” (Boehringer Ingelheim International GmbH, priority 2012, dated 2015).
